Experimental data as given in US9393219B2, “Monophenols and benzenediols sensitization of immune system against haptenized melanoma antigens” (ACADEMISCH ZIEKENHUIS BIJ DE UNIVERSITEIT VAN AMSTERDAM, priority 2005, dated 2016).
Read-outs that look alike come from different tables or passages of the source.

Assays:
melanoma = settings: cited from earlier work; for toxicity of intra arterial infusion: intra arterial infusions in the lower limbs, high doses; for efficacy as chemotherapeutic in melanoma: metastatic/disseminated melanoma, intra arterial infusion of high doses
skin = settings: cases in workers of polymer or leather industries; cited from earlier work
[1] = tested on: skin of vitiligo patients; assay: histology of skin of vitiligo patients undergoing depigmentation therapy; format: in vivo, human
From the text: (§1) No reaction occurs in depigmented skin. This entails that the inflammatory reaction is directed towards something, what is only present in melanocytes, e.g. tyrosinase, TRP1 and/or TRP2. However, auto-antibodies to tyrosinase, TRP1 and TRP2 have been reported to occur at low frequencies, or not at all, in vitiligo patients (37,38,39,40,41).

[2] = tested on: melanocytes and keratinocytes; assay: in vitro toxic effects on melanocytes and keratinocytes; format: cell-based
From the text: as §1

[3] = tested on: pigmented skin / depigmented skin; assay: in vivo inflammatory response of pigmented and depigmented skin; set-up: species or system human
From the text: as §1

metastatic melanoma = settings: immunotherapy; cited from earlier work

COc1ccc(O)cc1 [4-HA, 4-hydroxyanisole]
toxicity of intra arterial infusion (melanoma): serious renal and hepatic toxicity | toxicity of intra arterial infusion (melanoma; listed as 4-Hydroxyanisole): severe toxic events | efficacy as chemotherapeutic in melanoma (melanoma): without success | efficacy as chemotherapeutic in melanoma (melanoma; listed as 4-Hydroxyanisole): not effective

CC(C)(C)c1ccc(O)c(O)c1 [TBC, 4-tert-butylcatechol]
depigmentation on exposure of the skin (skin): causes leukoderma and can induce vitiligo-like depigmentation

Oc1ccc(OCc2ccccc2)cc1 [Monobenzone, p-(benzyloxy)phenol]
histology of skin: infiltrate [1]: dense infiltrate consisting of mainly CD8^+ cells and macrophages | granulocytes in the skin infiltrate ([1]; granulocytes would indicate a toxic (orthoergic) reaction): no granulocytes | sensitivity of melanocytes and keratinocytes to the toxic effects [2]: equally sensitive | depigmentation on exposure of the skin (skin): causes leukoderma and can induce vitiligo-like depigmentation | inflammatory reaction ([3]; depigmented skin): No reaction | inflammatory response with erythema, edema and scaliness ([3]; pigmented skin): only seen in the pigmented skin

B1: interferon (IFNγ): interferon (IFNγ) used as immunotherapy for metastatic melanoma (protein, UniProt P01579 24-161, looked up)
Interferon gamma: QDPYVKEAENLKKYFNAGHSDVADNGTLFLGILKNWKEESDRKIMQSQIVSFYFKLFKNFKDDQSIQKSVETIKEDMNVKFFNSNKKKRDDFEKLTNYSVTDLNVQRKAIHELIQVMAELSPAAKTGKRKRSQMLFRG
response rate (metastatic melanoma): approximately 15%
